Consider 21 compounds from US9867826B2, “Heterocycles as modulators of kinase activity” (Merck Patent GmbH, priority 2013, dated 2018).

For one test, the target named is His-AKT (Full Length) (Homo sapiens (Human), UniProt P31749). Nature of the test: AKT enzyme assay. It counts as biochemical. Particulars: 160 uM ATP. As for the experimental part: A TTP Mosquito liquid handling instrument was used to place 125 nl of the appropriate concentration of inhibitor in 100% DMSO (for a dose response curve calculation) into each well of a 384-well plate. To this reaction components were added to a final volume of 12.5 μl: • 0.1 ng/μl His-AKT (Full Length), (Invitrogen, Part # P2999, Lot #641228C). • 160 uM ATP (Fluka, 02055) • 1 mM DTT (Sigma, D0632) • 1 mM MgCl2 (Sigma, M1028) • 1 μM substrate peptide (sequence FITC-AHA-GRPRTSSFAEG-NH2), synthesized by Tufts Peptide Synthesis service. • 100 mM HEPES pH 7.5 (Calbiochem, 391338) • 0.015% Brij-35 (Sigma, B4184)
Sequence of His-AKT (Full Length) (P31749 whole entry): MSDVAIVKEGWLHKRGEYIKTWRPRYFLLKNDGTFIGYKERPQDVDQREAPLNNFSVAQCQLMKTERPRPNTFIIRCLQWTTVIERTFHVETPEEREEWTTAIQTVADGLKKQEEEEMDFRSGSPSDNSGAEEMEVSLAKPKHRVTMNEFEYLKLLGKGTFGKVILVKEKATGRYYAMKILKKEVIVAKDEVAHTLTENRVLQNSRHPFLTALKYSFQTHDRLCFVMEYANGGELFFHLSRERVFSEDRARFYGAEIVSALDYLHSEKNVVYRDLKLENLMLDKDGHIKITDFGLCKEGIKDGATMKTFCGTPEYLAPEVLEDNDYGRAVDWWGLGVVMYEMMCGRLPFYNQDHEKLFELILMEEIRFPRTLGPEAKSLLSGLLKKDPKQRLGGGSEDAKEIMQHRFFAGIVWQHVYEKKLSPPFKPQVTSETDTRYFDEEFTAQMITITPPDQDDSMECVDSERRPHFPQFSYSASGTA
The reaction was incubated for 90 min at 25 C., and then stopped by the addition of 70 μl of Stop buffer (100 mM HEPES pH 7.5, 0.015% Brij-35, 10 mM EDTA (Sigma, E7889)).
The plate was read on a Caliper LC 3000 in an Off-Chip mobility shift assay format, using the following parameters for a 12-sipper chip: screening pressure −2.3 psi, upstream voltage −500, and downstream voltage −3000. These conditions caused unphosphorylated substrate and phosphorylated product peptide to resolve as separate peaks allowing direct measurement of percentage of conversion of substrate to product.
The percent conversion was plotted against concentration of inhibitor to produce a sigmoidal dose response curve, from which an IC50 was calculated.

A further test concerns the target P70S6K (T412E mutant) (Homo sapiens (Human), UniProt P23443, T412E). Nature of the test: P70S6K enzyme assay. It counts as biochemical. Particulars: 24 μM ATP. How it is done: P70S6K inhibitor compounds were diluted and plated in 96 well plates. A reaction mixture including the following components was then added to the compound plate to initiate the enzyme reaction; P70S6K (3 nM, T412E mutant, Millipore) was mixed with 24 μM ATP in an assay buffer containing 100 mM Hepes (pH 7.5), 5 mM MgCl2, 1 mM DTT, 0.015% Brij and 1 μM of the substrate peptide FITC-AHA-AKRRRLSSLRA-OH (derived from the S6 ribosomal protein sequence, FITC=fluorescein isothiocyanate, AHA=6-aminohexanoic acid). The reaction was incubated for 90 min at 25° C., before the addition of 10 mM EDTA to stop the reaction. The proportion of substrate and product (phosphorylated) peptide was analysed on a Caliper Life Sciences Lab Chip 3000, using a pressure of −1.4 psi, and upstream and downstream voltages of −3000 and −700 respectively. Product peaks were resolved before substrate peaks on the resulting chromatograms.

Sequence of P70S6K (T412E mutant) (P23443 whole entry T412E): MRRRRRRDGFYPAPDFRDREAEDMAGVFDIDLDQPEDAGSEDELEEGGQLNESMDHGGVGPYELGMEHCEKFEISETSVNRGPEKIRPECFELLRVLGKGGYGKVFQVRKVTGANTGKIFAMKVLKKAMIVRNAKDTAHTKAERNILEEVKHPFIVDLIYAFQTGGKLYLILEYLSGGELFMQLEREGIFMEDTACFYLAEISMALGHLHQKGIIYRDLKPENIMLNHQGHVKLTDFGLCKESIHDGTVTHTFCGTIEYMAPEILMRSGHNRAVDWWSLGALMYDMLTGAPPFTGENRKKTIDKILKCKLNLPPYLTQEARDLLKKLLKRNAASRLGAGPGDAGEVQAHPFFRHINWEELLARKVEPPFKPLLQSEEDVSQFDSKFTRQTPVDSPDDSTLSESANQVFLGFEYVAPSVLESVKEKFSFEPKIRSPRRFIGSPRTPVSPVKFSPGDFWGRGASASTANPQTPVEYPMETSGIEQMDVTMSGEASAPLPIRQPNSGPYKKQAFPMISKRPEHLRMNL

Usually IC50 stands for the point on the concentration scale where inhibition reaches its midpoint. As for `N#Cc1c(N)ncnc1N1CC[C@@H](c2nc(-c3ccc(F)c(C(F)(F)F)c3)cn2CCN2CCC2)[C@@H](F)C1` (racemic) [Compound 1, 4-Amino-6-{3,4-cis-4-[1-(2-azetidin-1-yl-ethyl)-4-(4-fluoro-3-trifluoromethyl-phenyl)-1H-imidazol-2-yl]-3-fluoro-piperidin-1-yl}-pyrimidine-5-carbonitrile], the IC50 at His-AKT (Full Length) and against P70S6K (T412E mutant) was < 1 nM each time.
With `NC(=O)c1c(N)ncnc1N1CC[C@@H](c2nc(-c3ccc(F)c(C(F)(F)F)c3)cn2CCN2CCC2)[C@@H](F)C1` (racemic) [Compound 2, 4-Amino-6-{3,4-cis-4-{1-(2-azetidin-1-yl-ethyl)-4-(4-fluoro-3-trifluoromethyl-phenyl)-1H-imidazol-2-yl}-3-fluoro-piperidin-1-yl}-pyrimidine-5-carboxamide], the IC50 against His-AKT (Full Length) and at P70S6K (T412E mutant) was < 1 nM throughout.
Consider `C[C@H]1CN(c2ncnc(N)c2C#N)CC[C@H]1c1nc(-c2ccc(F)c(C(F)(F)F)c2)cn1CCN1CCC1` (racemic) [Compound 5, 4-Amino-6-{3,4-cis-4-[1-(2-azetidin-1-yl-ethyl)-4-(4-fluoro-3-trifluoromethyl-phenyl)-1H-imidazol-2-yl]-3-methyl-piperidin-1-yl}-pyrimidine-5-carbonitrile], for which the IC50 on His-AKT (Full Length) is > 10 nM; against P70S6K (T412E mutant), 1 to 10 nM.
Taken in the same sequence, the figures for `C[C@H]1CN(c2ncnc(N)c2C(N)=O)CC[C@H]1c1nc(-c2ccc(F)c(C(F)(F)F)c2)cn1CCN1CCC1` (racemic) [Compound 6, 4-Amino-6-{3,4-cis-4-[1-(2-azetidin-1-yl-ethyl)-4-(4-fluoro-3-trifluoromethyl-phenyl)-1H-imidazol-2-yl]-3-methyl-piperidin-1-yl}-pyrimidine-5-carboxamide] were > 10 nM and > 10 nM.
The like results for `N#Cc1c(N)ncnc1N1CC[C@H](c2nc(-c3ccc(F)c(C(F)(F)F)c3)cn2CCN2CCC2)[C@@H](F)C1` (racemic) [Compound 7, 4-amino-6-{3,4-trans-4-[1-(2-azetidin-1-yl-ethyl)-4-(4-fluoro-3-trifluoromethyl-phenyl)-1H-imidazol-2-yl]-3-fluoro-piperidin-1-yl}-pyrimidine-5-carbonitrile] were, in that order, > 10 nM and 1 to 10 nM.
Taken in the same sequence, the figures for `NC(=O)c1c(N)ncnc1N1CC[C@@H](c2nc(-c3ccc(F)c(C(F)(F)F)c3)cn2CCN2CCC2)[C@H](F)C1` (racemic) [Compound 8, 4-Amino-6-{3,4-trans-4-[1-(2-azetidin-1-yl-ethyl)-4-(4-fluoro-3-trifluoromethyl-phenyl)-1H-imidazol-2-yl]-3-fluoro-piperidin-1-yl}-pyrimidine-5-carboxamide] were > 10 nM and 1 to 10 nM.
With `Cc1cc(-c2cn(CCN(C)C)c([C@@H]3CCN(c4ncnc(N)c4C#N)C[C@@H]3F)n2)ccc1F` (racemic) [Compound 9], the IC50 against His-AKT (Full Length) and against P70S6K (T412E mutant) was 1 to 10 nM throughout.
Take `Nc1ncnc(N2CC[C@@H](c3nc(-c4ccc(F)c(C(F)(F)F)c4)cn3CCN3CCC3)[C@@H](F)C2)c1Cl` (racemic) [Compound 10, 6-{3,4-cis-4-[1-(2-Azetidin-1-yl-ethyl)-4-(4-fluoro-3-trifluoromethyl-phenyl)-1H-imidazol-2-yl]-3-fluoro-piperidin-1-yl}-5-chloro-pyrimidin-4-ylamine]: the IC50 on His-AKT (Full Length) and against P70S6K (T412E mutant) was < 1 nM throughout.
Take `Nc1ncnc(N2CC[C@@H](c3nc(-c4ccc(F)c(C(F)(F)F)c4)cn3CCN3CCC3)[C@H](F)C2)c1Cl` (racemic) [Compound 11, 6-{3,4-trans-4-[1-(2-Azetidin-1-yl-ethyl)-4-(4-fluoro-3-trifluoromethyl-phenyl)-1H-imidazol-2-yl]-3-fluoro-piperidin-1-yl}-5-chloro-pyrimidin-4-ylamine]: the IC50 at His-AKT (Full Length) and at P70S6K (T412E mutant) was 1 to 10 nM each time.
With `Cc1cc(-c2cn(CCN(C)C)c([C@H]3CCN(c4ncnc(N)c4Cl)C[C@H]3F)n2)ccc1F` (racemic) [Compound 12, 5-chloro-6-{3,4-cis-4-[1-(2-dimethylamino-ethyl)-4-(4-fluoro-3-methyl-phenyl)-1H-imidazol-2-yl]-3-fluoro-piperidin-1-yl}-pyrimidin-4-ylamine], the IC50 against His-AKT (Full Length) and against P70S6K (T412E mutant) was 1 to 10 nM in each case.
With `CCc1c(N)ncnc1N1CC[C@@H](c2nc(-c3ccc(F)c(C(F)(F)F)c3)cn2CCN2CCC2)[C@@H](F)C1` (racemic) [Compound 13, 6-{3,4-cis-4-[1-(2-Azetidin-1-yl-ethyl)-4-(4-fluoro-3-trifluoromethyl-phenyl)-1H-imidazol-2-yl]-3-fluoro-piperidin-1-yl}-5-ethyl-pyrimidin-4-ylamine], the IC50 at His-AKT (Full Length) and against P70S6K (T412E mutant) was 1 to 10 nM throughout.
For the compound `CN(C)CCn1cc(-c2ccc(F)c(C(F)(F)F)c2)nc1[C@@H]1CCN(c2ncnc(N)c2C#N)C[C@@H]1F` (racemic) [Compound 14, 4-Amino-6-{3,4-cis-4-[1-(2-dimethylamino-ethyl)-4-(4-fluoro-3-trifluoromethyl-phenyl)-1H-imidazol-2-yl]-3-fluoro-piperidin-1-yl}-pyrimidine-5-carbonitrile], the IC50 against His-AKT (Full Length) and against P70S6K (T412E mutant) was 1 to 10 nM each time.
Regarding `CN(C)CCn1cc(-c2ccc(F)c(C(F)(F)F)c2)nc1[C@@H]1CCN(c2ncnc(N)c2C(N)=O)C[C@@H]1F` (racemic) [Compound 15], the IC50 against His-AKT (Full Length) is > 10 nM; against P70S6K (T412E mutant) it was 1 to 10 nM.
The like results for `CCOc1c(N)ncnc1N1CC[C@@H](c2nc(-c3ccc(F)c(C(F)(F)F)c3)cn2CCN2CCC2)[C@@H](F)C1` (racemic) [Compound 16, 6-{3,4-cis-4-[1-(2-Azetidin-1-yl-ethyl)-4-(4-fluoro-3-trifluoromethyl-phenyl)-1H-imidazol-2-yl]-3-fluoro-piperidin-1-yl}-5-ethoxy-pyrimidin-4-ylamine] were, in that order, 1 to 10 nM and 1 to 10 nM.
Turning to `CC(C)c1c(N)ncnc1N1CC[C@@H](c2nc(-c3ccc(F)c(C(F)(F)F)c3)cn2CCN(C)C)[C@@H](F)C1` (racemic) [Compound 17, 6-{cis-4-[1-(2-Dimethylamino-ethyl)-4-(4-fluoro-3-trifluoromethyl-phenyl)-1H-imidazol-2-yl]-3-fluoro-piperidin-1-yl}-5-isopropyl-pyrimidin-4-ylamine], the values for the IC50 on His-AKT (Full Length) and at P70S6K (T412E mutant) were > 10 nM and 1 to 10 nM, respectively.
Taken in the same sequence, the figures for `Cc1cc(-c2cn(CCN3CCC3)c([C@@H]3CCN(c4ncnc(N)c4C#N)C[C@@H]3F)n2)ccc1F` (racemic) [Compound 18, 4-Amino-6-{cis-4-[1-(2-azetidin-1-yl-ethyl)-4-(4-fluoro-3-methyl-phenyl)-1H-imidazol-2-yl]-3-fluoro-piperidin-1-yl}-pyrimidine-5-carbonitrile] were 1 to 10 nM and 1 to 10 nM.
The like results for `Cc1cc(-c2cn(CCN3CCC3)c([C@@H]3CCN(c4ncnc(N)c4C(C)C)C[C@@H]3F)n2)ccc1F` (racemic) [Compound 24, 6-{cis-4-[1-(2-Azetidin-1-yl-ethyl)-4-(4-fluoro-3-methyl-phenyl)-1H-imidazol-2-yl]-3-fluoro-piperidin-1-yl}-5-isopropyl-pyrimidin-4-ylamine] were, in that order, 1 to 10 nM and 1 to 10 nM.
For the compound `CN(C)CCn1cc(-c2ccc(F)c(C(F)(F)F)c2)nc1[C@@H]1CCN(c2ncnc(N)c2Cl)C[C@@H]1F` (racemic) [Compound 25], the IC50 on His-AKT (Full Length) and on P70S6K (T412E mutant) was 1 to 10 nM each time.
As to `CC(C)c1c(N)ncnc1N1CC[C@@H](c2nc(-c3ccc(F)c(C(F)(F)F)c3)c[nH]2)[C@@H](F)C1` (racemic) [Compound 26, 6-{cis-3-Fluoro-4-[4-(4-fluoro-3-trifluoromethyl-phenyl)-1H-imidazol-2-yl]-piperidin-1-yl}-5-isopropyl-pyrimidin-4-ylamine], the figures for the IC50 against His-AKT (Full Length) and at P70S6K (T412E mutant) were > 10 nM and 1 to 10 nM, respectively.
On to `CC(C)c1c(N)ncnc1N1CC[C@@H](c2nc(-c3ccc(F)c(C(F)(F)F)c3)cn2CCN)[C@@H](F)C1` (racemic) [Compound 33, 6-{cis-4-[1-(2-Amino-ethyl)-4-(4-fluoro-3-trifluoromethyl-phenyl)-1H-imidazol-2-yl]-3-fluoro-piperidin-1-yl}-5-isopropyl-pyrimidin-4-ylamine], for which the IC50 against His-AKT (Full Length) and on P70S6K (T412E mutant) was 1 to 10 nM in each case.
On to `NCCn1cc(-c2ccc(F)c(C(F)(F)F)c2)nc1[C@@H]1CCN(c2ncnc(N)c2Cl)C[C@@H]1F` (racemic) [Compound 36], for which the IC50 against His-AKT (Full Length) and against P70S6K (T412E mutant) was 1 to 10 nM in each case.
